The values that follow come from PubChem BioAssay AID1999 (Broad Institute, 2009).

Inconclusive results are not listed. The source made the active and inactive calls. The rule behind the calls is not given here.

The subject of this test is H4 cells, PrP 5'UTR luciferase reporter, luminescence. As to the kind of experiment: activators of PrP 5'UTR-driven reporter translation, dose response, luminescence (AID 1999).

In general, EC50 refers to the concentration needed to bring the measured effect to its halfway point. On to `C#CCOCCOCCOCCNc1nc(N2CCN(C(=O)CCCCCCCCCCNC(=O)[C@H](CCCCN)n3cc(CCCC(=O)O)nn3)CC2)nc(N2CCN(C(=O)CCCCCCCCCCNC(=O)[C@H](CCCN=C(N)N)n3cc(C[C@@H](C)CC)nn3)CC2)n1`, for which the EC50 is > 12 µM (inactive).
